Several values for one entry are separate records, joined by “and”; a condition that tells them apart may be missing. Equal entries are not always repeated. Inconclusive results and toxic doses are left out.
System: P388 leukemia ip, CD2F1 mice, survival T/C
Test: NCI In Vivo Anticancer Drug Screen. Data for tumor model P388 Leukemia (intraperitoneal) in CD2F1 (CDF1) mice
Conditions: endpoint: median survival time, higher = longer survival
In short: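 Mice carrying the transplanted tumor received test compound or vehicle. Survival was recorded in each group, and the value is the treated-group measurement divided by that of the vehicle-treated control group.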

[1] = dose: 100.0 mg/kg/injection, schedule: Q04DX003 (ip), vehicle: saline with Tween-80
[2] = dose: 200.0 mg/kg/injection, schedule: Q04DX003 (ip), vehicle: saline with Tween-80
[3] = dose: 400.0 mg/kg/injection, schedule: Q04DX003 (ip), vehicle: saline with Tween-80
[4] = dose: 100.0 mg/kg/injection, schedule: Q01DX009 (ip), vehicle: saline with Tween-80
[5] = dose: 60.0 mg/kg/injection, schedule: Q01DX005 (ip), vehicle: saline with Tween-80
[6] = dose: 120.0 mg/kg/injection, schedule: Q01DX005 (ip), vehicle: saline with Tween-80
[7] = dose: 240.0 mg/kg/injection, schedule: Q01DX005 (ip), vehicle: saline with Tween-80
[8] = dose: 50.0 mg/kg/injection, schedule: Q01DX005 (ip), vehicle: Klucel (hydroxypropylcellulose) (HPC)
[9] = dose: 100.0 mg/kg/injection, schedule: Q01DX005 (ip), vehicle: Klucel (hydroxypropylcellulose) (HPC)
[10] = dose: 50.0 mg/kg/injection, schedule: Q01DX005 (ip), vehicle: saline with Tween-80
[11] = dose: 100.0 mg/kg/injection, schedule: Q01DX005 (ip), vehicle: saline with Tween-80
[12] = dose: 200.0 mg/kg/injection, schedule: Q01DX005 (ip), vehicle: saline with Tween-80
[13] = dose: 25.0 mg/kg/injection, schedule: Q01DX005 (ip), vehicle: Klucel (hydroxypropylcellulose) (HPC)
[14] = dose: 100.0 mg/kg/injection, schedule: Q01DX009 (ip), vehicle: Klucel (hydroxypropylcellulose) (HPC)
[15] = dose: 50.0 mg/kg/injection, schedule: Q01DX009 (ip), vehicle: Klucel (hydroxypropylcellulose) (HPC)
[16] = dose: 50.0 mg/kg/injection, schedule: Q01DX009 (ip), vehicle: saline

For `Cc1cccc(Cl)c1NC(=O)CS`, the T/C [1] was 100 % of control, the T/C [2] was 104 % of control and the T/C [3] was 100 % of control.
`CC(=O)N/N=C/C(C)(C)C(C)(C)/C=N/NC(C)=O` was tested, and the T/C (dose: 120.0 mg/kg/injection, schedule: Q01DX005 (ip), vehicle: Klucel (hydroxypropylcellulose) (HPC)) was 153 % of control.
With `Cc1ccc(S(=O)(=O)NC(=O)NC(=S)c2ccco2)cc1` the T/C (dose: 100.0 mg/kg/injection, schedule: Q01DX001 (ip), vehicle: saline with Tween-80) was 101 % of control, the T/C (dose: 200.0 mg/kg/injection, schedule: Q01DX001 (ip), vehicle: saline with Tween-80) was 97 % of control and the T/C (dose: 400.0 mg/kg/injection, schedule: Q01DX001 (ip), vehicle: saline with Tween-80) was 102 % of control.
In the case of `O=C(NC(=O)c1c(F)cccc1F)Nc1ccc(Cl)nc1`, the T/C (dose: 3.13 mg/kg/injection, schedule: Q01DX009 (ip), vehicle: saline with Tween-80) is reported as 105 % of control, the T/C (dose: 6.25 mg/kg/injection, schedule: Q01DX009 (ip), vehicle: saline with Tween-80) is reported as 100 % of control and the T/C (dose: 12.5 mg/kg/injection, schedule: Q01DX009 (ip), vehicle: saline with Tween-80) is reported as 102 % of control.
For `NC(=O)C1CCCCC1C(N)=O` (stereo unspecified), the T/C [4] was 100 % of control, the T/C (dose: 200.0 mg/kg/injection, schedule: Q01DX009 (ip), vehicle: saline with Tween-80) was 104 % of control and the T/C (dose: 400.0 mg/kg/injection, schedule: Q01DX009 (ip), vehicle: saline with Tween-80) was 104 % of control.
In the case of `O=c1cc2n(c(=O)n1-c1ccccc1)CCCC2`, the T/C [5] is reported as 102 % of control, the T/C [6] is reported as 100 % of control and the T/C [7] is reported as 103 % of control.
In the case of `CN1CCC(CC2CCCCN2)CC1` (stereo unspecified), the T/C (dose: 6.25 mg/kg/injection, schedule: Q01DX009 (ip), vehicle: distilled water + Tween-80) is reported as 99 % of control, the T/C (dose: 12.5 mg/kg/injection, schedule: Q01DX009 (ip), vehicle: distilled water + Tween-80) is reported as 105 % of control and 95 % of control and the T/C (dose: 25.0 mg/kg/injection, schedule: Q01DX009 (ip), vehicle: distilled water + Tween-80) is reported as 98 % of control and 122 % of control. The T/C (dose: 50.0 mg/kg/injection, schedule: Q01DX009 (ip), vehicle: distilled water + Tween-80) was 108 % of control and 116 % of control and the T/C (dose: 100.0 mg/kg/injection, schedule: Q01DX009 (ip), vehicle: distilled water + Tween-80) was 103 % of control.
In the case of `CCCCCCCCC(=O)N(C)OC`, the T/C (dose: 25.0 mg/kg/injection, schedule: Q01DX009 (ip), vehicle: saline with Tween-80) is reported as 110 % of control, the T/C (dose: 50.0 mg/kg/injection, schedule: Q01DX009 (ip), vehicle: saline with Tween-80) is reported as 110 % of control and the T/C [4] is reported as 105 % of control.
In the case of `c1ccc(CN2COCO[C@H]3CCC[C@@H]32)cc1`, the T/C [8] is reported as 107 % of control and the T/C [9] is reported as 104 % of control.
With `CCOc1ccc(NC(=O)C2=C(C)NC(C)=C(C(=O)Nc3ccc(OCC)cc3)C2c2cccc([N+](=O)[O-])c2)cc1` the T/C (dose: 15.0 mg/kg/injection, schedule: Q01DX005 (ip), vehicle: Klucel (hydroxypropylcellulose) (HPC)) was 98 % of control, the T/C (dose: 30.0 mg/kg/injection, schedule: Q01DX005 (ip), vehicle: Klucel (hydroxypropylcellulose) (HPC)) was 104 % of control and the T/C (dose: 60.0 mg/kg/injection, schedule: Q01DX005 (ip), vehicle: Klucel (hydroxypropylcellulose) (HPC)) was 92 % of control and 97 % of control.
With `C[Si](C)(C)O/C=C1\CCc2ccccc2C1=O` the T/C [10] was 100 % of control, the T/C [11] was 101 % of control and the T/C [12] was 114 % of control.
With `CN1C2CCC1C(O)C(c1ccc(Cl)cc1)C2` (stereo unspecified) the T/C [13] was 100 % of control, the T/C [8] was 100 % of control and the T/C [9] was 91 % of control.
With `CC(=O)OCc1c(COC(C)=O)c(-c2ccc(Cl)c(Cl)c2)n2c1CCC2` the T/C [14] was 122 % of control.
For `NN1CCCC1`, the T/C (dose: 100.0 mg/kg/injection, schedule: Q04DX003 (ip), vehicle: saline) was 90 % of control and the T/C (dose: 200.0 mg/kg/injection, schedule: Q04DX003 (ip), vehicle: saline) was 95 % of control.
With `COc1cc(C2CC(C)(OC)Oc3cc4c(cc32)OCO4)cc(OC)c1OC` (stereo unspecified) the T/C [5] was 106 % of control and 90 % of control and 95 % of control and the T/C [6] was 109 % of control and 95 % of control and 97 % of control.
In the case of `C/C=C1/CN2CCC34c5ccccc5N(C)C23C2CC1C4(C(=O)OC)C(OC(C)=O)O2` (stereo unspecified), the T/C (dose: 9.25 mg/kg/injection, schedule: Q01DX005 (ip), vehicle: saline + Tween-80 + alcohol) is reported as 96 % of control, the T/C (dose: 18.5 mg/kg/injection, schedule: Q01DX005 (ip), vehicle: saline + Tween-80 + alcohol) is reported as 106 % of control and the T/C (dose: 37.0 mg/kg/injection, schedule: Q01DX005 (ip), vehicle: saline + Tween-80 + alcohol) is reported as 112 % of control. For the same compound, the T/C (dose: 74.0 mg/kg/injection, schedule: Q01DX005 (ip), vehicle: saline + Tween-80 + alcohol) was 100 % of control.
For `CC(C)=NNc1nc(N(C)C)nc(N(C)C)n1`, the T/C [1] was 105 % of control, the T/C [2] was 105 % of control and the T/C [3] was 103 % of control.
With `CC(C)=CCC(OC(=O)C=C(C)C)c1cc(O)c2c(O)ccc(O)c2c1O.[O]=[V]` (stereo unspecified) the T/C (dose: 100.0 mg/kg/injection, schedule: Q04DX002 (ip), vehicle: saline with Tween-80) was 92 % of control, the T/C (dose: 200.0 mg/kg/injection, schedule: Q04DX002 (ip), vehicle: saline with Tween-80) was 92 % of control and the T/C (dose: 400.0 mg/kg/injection, schedule: Q04DX002 (ip), vehicle: saline with Tween-80) was 109 % of control.
For `CC1CC[N-]CC1.CC1CC[N-]CC1.CS(C)=O.[Cl][Rh]([Cl])[Cl]`, the T/C (dose: 3.0 mg/kg/injection, schedule: Q01DX009 (ip), vehicle: saline with Tween-80) was 104 % of control, the T/C (dose: 3.0 mg/kg/injection, schedule: Q04DX003 (ip), vehicle: saline with Tween-80) was 104 % of control and the T/C (dose: 6.0 mg/kg/injection, schedule: Q01DX009 (ip), vehicle: saline with Tween-80) was 95 % of control. For the same compound, the T/C (dose: 6.0 mg/kg/injection, schedule: Q04DX003 (ip), vehicle: saline with Tween-80) was 100 % of control, the T/C (dose: 12.0 mg/kg/injection, schedule: Q01DX009 (ip), vehicle: saline with Tween-80) was 95 % of control and the T/C (dose: 12.0 mg/kg/injection, schedule: Q04DX003 (ip), vehicle: saline with Tween-80) was 109 % of control.
For `O=C1CCC(=O)N1SCc1cccc2ccccc12`, the T/C [15] was 115 % of control, the T/C [14] was 93 % of control and the T/C (dose: 200.0 mg/kg/injection, schedule: Q01DX009 (ip), vehicle: Klucel (hydroxypropylcellulose) (HPC)) was 102 % of control.
In the case of `NC(S(=O)(=O)O)S(=O)(=O)O`, the T/C [16] is reported as 105 % of control, the T/C (dose: 100.0 mg/kg/injection, schedule: Q01DX009 (ip), vehicle: saline) is reported as 110 % of control and the T/C (dose: 200.0 mg/kg/injection, schedule: Q01DX009 (ip), vehicle: saline) is reported as 96 % of control.
In the case of `COc1ccccc1NC(=O)CC(=O)c1ccc([N+](=O)[O-])cc1`, the T/C (dose: 6.25 mg/kg/injection, schedule: Q04DX003 (ip), vehicle: saline sonified) is reported as 100 % of control, the T/C (dose: 12.5 mg/kg/injection, schedule: Q04DX003 (ip), vehicle: saline sonified) is reported as 100 % of control and the T/C (dose: 25.0 mg/kg/injection, schedule: Q04DX003 (ip), vehicle: saline sonified) is reported as 100 % of control.
For `COc1nc(NC(C)C)nc(NC(C)C)n1`, the T/C (dose: 50.0 mg/kg/injection, schedule: Q04DX003 (ip), vehicle: saline with Tween-80) was 87 % of control, the T/C [1] was 95 % of control and the T/C [2] was 104 % of control.
In the case of `COc1ccccc1C(O)c1cnc(C)n1Cc1ccccc1` (stereo unspecified), the T/C [5] is reported as 98 % of control, the T/C [6] is reported as 107 % of control and the T/C [7] is reported as 97 % of control.
For `c1ccc(CCn2c(-c3ccccn3)nc3ccccc32)nc1`, the T/C [13] was 105 % of control, the T/C [8] was 99 % of control and the T/C [9] was 99 % of control.
For `O=C(O)Cc1cnc[nH]1`, the T/C (dose: 6.25 mg/kg/injection, schedule: Q01DX009 (ip), vehicle: saline) was 100 % of control, the T/C (dose: 12.5 mg/kg/injection, schedule: Q01DX009 (ip), vehicle: saline) was 106 % of control and the T/C (dose: 25.0 mg/kg/injection, schedule: Q01DX009 (ip), vehicle: saline) was 97 % of control. For the same compound, the T/C [16] was 99 % of control.
`O=C1c2ccccc2-n2c1nc1ccccc1c2=O` was tested, and the T/C [10] was 102 % of control, the T/C [11] was 100 % of control and the T/C [12] was 107 % of control.
`Cc1ccc(C2SCC(=O)N2CCN2C(=O)CSC2c2ccc(C)s2)s1` (stereo unspecified) was tested, and the T/C [10] was 101 % of control, the T/C [11] was 109 % of control and the T/C [12] was 100 % of control.
`CC1(C)CC(OS(C)(=O)=O)CC(C)(C)N1O` was tested, and the T/C [15] was 100 % of control and the T/C [14] was 99 % of control.
